Results as given in BigSolDB 2.1.

CC(C)c1nc(N(C)S(C)(=O)=O)nc(-c2ccc(F)cc2)c1/C=C/[C@@H](O)C[C@@H](O)CC(=O)[O-].CC(C)c1nc(N(C)S(C)(=O)=O)nc(-c2ccc(F)cc2)c1/C=C/[C@@H](O)C[C@@H](O)CC(=O)[O-].[Ca+2]
solubility (mole fraction)
Conditions	in ethanol	in ethylene glycol	in isopropanol	in n-butanol	in propylene glycol	in sec-butanol	in water
298.15 K	0.000337	0.000255	0.000304	0.000429	0.0156	7.17e-05	5.4e-06
303.15 K	0.000392	0.000311	0.000366	0.000511	0.0164	8e-05	7.02e-06
308.15 K	0.000469	0.000374	0.000432	0.000614	0.0173	8.96e-05	9e-06
313.15 K	0.00057	0.00044	0.000499	0.00071	0.0181	9.92e-05	1.13e-05
318.15 K	0.000681	0.000503	0.000566	0.00082	0.0189	0.000108	1.4e-05
